# From patent publication US12617837B2, “Composition for use in treatment of allergic diseases” (UNIVERSITY OF TSUKUBA, priority 2019, dated 2026)
# Key:
# mouse Clec10a = biological target: T1, mouse Clec10a (Mus musculus, UniProt P49300); experiment: Mouse Clec10a-CD3ζ NFAT-GFP reporter cell assay; format: cell-based; details: for GFP expression in mouse Clec10a reporter cells: stimulation with coated plates, 18 hours, flow cytometry
# T1 construct: an extracellular and transmembrane portions of Clec10a fused to a cytoplasmic portion of CD3; expressed in transfected cells; host or cells: 2B4-NFAT-GFP reporter cells, pMXs-puro retroviral vector
# T1 sequence (P49300 57-304 limits assumed): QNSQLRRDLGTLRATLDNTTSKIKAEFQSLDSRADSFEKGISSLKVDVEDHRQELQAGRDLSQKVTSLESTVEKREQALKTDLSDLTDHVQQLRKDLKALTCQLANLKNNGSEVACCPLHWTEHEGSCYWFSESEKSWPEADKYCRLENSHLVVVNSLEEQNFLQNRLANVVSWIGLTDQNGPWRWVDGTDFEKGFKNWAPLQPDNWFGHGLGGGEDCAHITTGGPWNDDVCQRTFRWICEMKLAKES
# Experimental: (§1) The intracellular region of human CD3ζ was obtained from a vector provided by LL Lanier (University of California, San Francisco). The extracellular region of mouse or human Clec10a or the extracellular region of human Asgr1 was subcloned into a pMXs-puro retroviral vector. 2B4-NFAT-GFP reporter cells were provided from H. Arase (University of Osaka). 2B4-NFAT-GFP reporter cells stably expressing mouse or human Clec10a were made as described previously. The reporter cells were incubated for 18 hours in the presence or absence of anti-Clec10a mAb, Lewis X (GlycoTech), Lewes Y (GlycoTech), galactose (Sigma-Aldrich), glucose (Sigma-Aldrich) or mannose (Sigma-Aldrich). The reporter cells were also cultured on a galactosidase (R & D Systems, 5704 GH or 5549 GH) or glucosidase (R & D Systems, 8329-GH), or Clec10 ligand-coated plate, or an HDM extract-coated plate treated with size-fractionated Clec10a ligand or untreated. Activation of NFAT-GFP was monitored by flow cytometry.
# To test whether Clec10a recognized glycosylated proteins contained in HDM, NFAT-GFP reporter cells (Clec10a reporter cells) were made which expressed chimeric fusion proteins inch ling an extracellular and transmembrane portions of Clec10a fused to a cytoplasmic portion of CD3.
# Clec10a-Fc [1] = biological target: T2, Clec10a-Fc (Mus musculus, UniProt P49300); experiment: ELISA of Clec10a-Fc binding to glycan-coated plates; details: plates coated with Lewis X or Lewis Y
# T2 construct: cloning the extracellular region of mouse Clec10a into a pME18S expression vector; made in house; host or cells: HEK293T cells
# T2 sequence (P49300 57-304 limits assumed): T1 sequence (P49300 57-304 limits assumed)
# From the text: A mouse Clec10a chimeric construct (Clec10a-Fc) was made by cloning the extracellular region of mouse Clec10a into a pME18S expression vector containing the Fc region of human IgG1. Clec10a-Fc was transfected into HEK293T cells using Lipofectamine 2000 (Thermo Fisher Scientific) and the medium was then replaced with GIT medium (KOHJIN BIO). Clec10a-Fc was purified from the culture supernatants using protein a agarose (Bio-Rad Laboratories).
# An ELISA system with Clec10a applied to glycan-coated plates was constructed by a routine method to study the binding of each glycan with Clec10a. In the ELISA system, with the expectation that a multivalent effect is achieved by binding a plurality of glycans to the polymeric scaffold, the glycans were bound to the polymeric scaffold and presented to Clec10a. […]
# A PBS solution containing 1 μg/well, 0.1 μg/well, or 0.01 μg/well of the polymeric scaffold presenting the glycans at the location “Sugar” of the above formula as described above (the modification rate was 20% as per the above formula) was introduced into a 96 well plate, and incubation was performed overnight at room temperature so that the wells were coated with the glycans. […] After 1-hour incubation at room temperature, the unbound Clec10a-Fc was washed, and Clec10a-Fc bound to the plate surface was quantified with peroxidase-labeled anti-Fc antibodies. […]
# Clec10a-Fc [2] = biological target: T2, Clec10a-Fc; experiment: Sugar conjugate (glycan) microarray analysis of Clec10a-Fc (Table 7); format: binding
# Experimental: A sugar conjugate microarray containing 98 sugar conjugates (Table 3) was prepared according to a known method using a non-contact microarray printing robot (MicroSys 4000; Genomic Solutions).
# human IgG1 = experiment: Glycan microarray probed with human IgG1 (control of Table 7); format: binding
# [3] = tested on: skin inflammation against lipopolysaccharides (LPS); experiment: LPS-induced skin inflammation, intradermal LPS with polymeric scaffold presenting T antigen; format: in vivo, mouse; details: 50 μg LPS and 20 μg T antigen scaffold intradermal daily, Day 5
# Experimental: It was examined whether one of them, T antigen, could suppress skin inflammation against lipopolysaccharides (LPS). The polymeric scaffolds presenting 50 μg LPS and 20 μg T antigen were intradermally injected in the mouse back daily and the epidermal thickness was observed on Day 5. […] In the Clec10a-knockout mice, the epidermal thickness was equal to or greater than that in the WT.
# human Asgr1 = biological target: T3, human Asgr1 (Homo sapiens, UniProt P07306); experiment: Human Asgr1-CD3ζ NFAT-GFP reporter cell assay; format: cell-based
# T3 construct: the extracellular region of human Asgr1 was subcloned into a pMXs-puro retroviral vector; expressed in transfected cells
# T3 sequence (P07306 62-291 limits assumed): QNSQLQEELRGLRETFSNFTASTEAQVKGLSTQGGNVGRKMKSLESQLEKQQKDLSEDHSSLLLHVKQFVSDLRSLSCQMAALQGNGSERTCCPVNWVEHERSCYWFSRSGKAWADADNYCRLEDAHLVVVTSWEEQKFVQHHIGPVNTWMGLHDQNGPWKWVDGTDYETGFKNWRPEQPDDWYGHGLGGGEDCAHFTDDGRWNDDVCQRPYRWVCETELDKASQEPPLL
# Experimental: as §1
# (§2) The hemITAM sequence (YxxL) was not found in human Clec10a and could only be found in human Asgr1 (see panel c in FIG. 4). […] Upon confirmation of protein expression, human Asgr1 expressed in MP in the human skin, similarly to Clec10a expression in the mouse skin (see panel e in FIG. 4). […]
# human Clec10a = biological target: T4, human Clec10a (Homo sapiens, UniProt Q8IUN9); experiment: Human Clec10a-CD3ζ NFAT-GFP reporter cell assay; format: cell-based; details: addition of sugar, HDM-coated plates
# T4 construct: The extracellular region of mouse or human Clec10a or the extracellular region of human Asgr1 was subcloned; expressed in transfected cells; host or cells: 2B4-NFAT-GFP reporter cells, pMXs-puro retroviral vector
# T4 sequence (Q8IUN9 61-316 limits assumed): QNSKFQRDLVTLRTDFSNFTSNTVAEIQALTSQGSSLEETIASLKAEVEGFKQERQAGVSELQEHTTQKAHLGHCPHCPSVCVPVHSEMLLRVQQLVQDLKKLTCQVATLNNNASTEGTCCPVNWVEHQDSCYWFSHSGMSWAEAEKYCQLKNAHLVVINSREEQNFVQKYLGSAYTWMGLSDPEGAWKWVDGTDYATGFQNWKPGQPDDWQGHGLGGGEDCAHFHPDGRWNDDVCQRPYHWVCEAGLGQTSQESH
# Experimental: as §1, §2
# BMMP = experiment: Immunoprecipitation/immunoblot of SHP-1 recruitment to Clec10a in HDM-stimulated BMMP; format: cell-based, mouse; details: BMMP pretreated with Syk inhibitor, HDM extract 100 μg/mL
# Experimental: To analyze association of Clec10a with Syk or SHP-1, BMMP was pretreated in the presence or absence of […] Syk inhibitor IV (Merck, 574714) at 37° C. for 30 minutes and stimulated with an HDM extract (100 μg/mL) at 37° C. for 0 min, 10 min, or 30 min. BMMP was lysed with a 0.2% digitonin buffer and immunoprecipitated with anti-Clec10a mAb. An immune precipitate was transferred onto a PVDF membrane as described above and immunoblotted using anti-Syk antibodies, anti-SHP-1 antibodies, or anti-Clec10a antibodies, and then detected with HRP-labeled anti-rabbit IgG antibodies or goat IgG antibodies. All proteins were detected using enhanced chemiluminescence (Thermo Fisher Scientific).
compound,measurement,setting,value
"CC(=O)N[C@@H]1[C@@H](O[C@@H]2O[C@@H](C)[C@@H](O)[C@@H](O)[C@@H]2O)[C@H](O[C@@H]2O[C@H](CO)[C@H](O)[C@H](O)[C@H]2O[C@@H]2O[C@@H](C)[C@@H](O)[C@@H](O)[C@@H]2O)[C@@H](CO)O[C@H]1O [Lewis Y, reference compound]",GFP expression in mouse Clec10a reporter cells,mouse Clec10a,did not respond
same,Binding of Clec10a-Fc to coated plates (ELISA),Clec10a-Fc [1],not bound
same,"Signal value, Clec10a-Fc",Clec10a-Fc [2]; glycan microarray probed with Clec10a-Fc,0
same,"Signal value, Clec10a-Fc with EDTA",Clec10a-Fc [2]; glycan microarray probed with Clec10a-Fc with EDTA,0
same,"Signal value, human IgG1",human IgG1,0
"CC(=O)N[C@H]1C(O)O[C@H](CO)[C@H](O)[C@@H]1O[C@@H]1O[C@H](CO)[C@H](O)[C@H](O)[C@H]1O (some centres unmarked) [T antigen, Galβ(1-3)GalNAc]",GFP expression in mouse Clec10a reporter cells,mouse Clec10a,activated Clec10a in a dose-dependent manner
same,Binding of Clec10a-Fc in glycan microarray,Clec10a-Fc [2]; Clec10a-Fc 10 μg/mL,binds
same,Epidermal thickness,[3]; Clec10a knockout mice,epidermal thickness suppressive effect of the T antigen was not observed
same,Epidermal thickness,[3]; WT mice,increase in thickness of the skin by LPS was suppressed
O=C[C@H](O)[C@@H](O)[C@@H](O)[C@H](O)CO [galactose],Inhibition of HDM-induced GFP expression in mouse Clec10a reporter cells,"mouse Clec10a; pretreatment of the reporter cells, HDM-coated plates",inhibited GFP expression
same,Offset of Clec10a ligand-induced activation of human Asgr1 reporter cells,human Asgr1; addition of galactose to the system,"offset, in a concentration dependent manner"
same,Inhibition of HDM-induced GFP expression in human Asgr1 reporter cells,"human Asgr1; addition of sugar, HDM-coated plates",inhibited the expression of GFP induced by HDM
same,Inhibition of HDM-induced GFP expression in human Clec10a reporter cells,human Clec10a,only in the Asgr1 reporter cells
COc1ccc(-c2cc3nccn3c(Nc3ncccc3C(N)=O)n2)cc1OC [Syk inhibitor IV],Recruitment of HDM-induced SHP-1 to Clec10a,BMMP,suppressed the recruitment of HDM-induced SHP-1 to Clec10a
